Source: article PMC7985170, “Marine Peptide-N6NH2 and Its Derivative-GUON6NH2 Have Potent Antimicrobial Activity Against Intracellular Edwardsiella tarda in vitro and in vivo” (Frontiers in Microbiology, 2021)
Converted amounts (≈) assume the structure as drawn. Where a SMILES comes first, the peptide text is derived from it. Bridges are numbered along the chain shown (N, C = ends). The star is where a group is joined. Orn(α-tetramethylguanidino) = CN(C)C(=N[C@@H](CCCN)C(=O)*)N(C)C

Experiments:
E. tarda [1] = experiment: Post-antibiotic effect (PAE); type: cell-based, Edwardsiella tarda; settings: for PAE: 2 h exposure, E. tarda, 28°C, n = 3
Protocol: E. tarda cells were incubated with peptides (1×, 2×, or 4× MIC) for 2 h, diluted, and cultured at 28°C and 200 rpm. An aliquot of samples (50 μL) were taken for CFU counts at different time intervals until bacterial cultures became turbid. Bacteria treated with the N6NH2, GUON6NH2 or vancomycin were used as the positive control; bacteria without treatment were used as the blank control. The PAE was calculated using the following formula: PAE = T–C, where T is the time for the CFU counts to increase by 10-fold above the count observed immediately after drug removal, and C is the corresponding time for the untreated control ([Oh et al., 2019]).

[2] = test system: intracellular E. tarda in RAW 264.7 macrophages; type: cell-based, Edwardsiella tarda; settings: for killing of intracellular bacteria: 5–50× MIC, RAW 264.7; for killing of intracellular bacteria / killing efficacy against intracellular E. tarda: 18 h; for killing efficacy against intracellular E. tarda: 1
Protocol: For intracellular activity, RAW 264.7 macrophages (2.5 × 10^5 cells/mL) were cultured for 24 h in DMEM with 10% FBS (without antibiotics) ([Edwards and Massey, 2011]). Meanwhile, mid-log phase E. tarda were collected by centrifugation, diluted to a concentration of 2.5 × 10^8 CFU/mL in DMEM with 10% FBS (without antibiotic), and incubated with RAW 264.7 macrophages for 0.5 h. Gentamicin (1,000 μg/mL) was then added into the cells and incubated for 30 min to remove extracellular bacteria. After washing twice with PBS, […], washed again, and lysed with Hanks buffered saline solution (0.1% bovine serum albumin and 0.1% Triton-X). The numbers of intracellular bacteria were counted at 0 and 18 h, respectively.

S. pullorum CVCC1789 = type: cell-based, Salmonella pullorum
Protocol: (§1) The antimicrobial activity of peptides was determined by the microbroth dilution method ([Zhang et al., 2014]). The bacterial strains were incubated in Mueller-Hinton (MH) medium at 28°C or 37°C overnight. Bacteria (1 × 10^5 CFU/mL) were added into 96-well plates, followed by the addition of serial dilutions of peptides (from 0.0625 to 128 μg/mL). The plates were incubated at 37°C for 18–24 h. The minimal inhibitory concentration (MIC) value was determined as the lowest peptide concentration at which no bacterial growth was observed.

E. coli CVCC25922 = type: cell-based, Escherichia coli
Protocol: as §1

E. coli CVCC1515 = type: cell-based, Escherichia coli
Protocol: as §1

LPS = LPS binding, BODIPY-TR-cadaverine (BC) probe displacement; settings: 0.5 μM LPS, 5 μM BC, Tris buffer pH 7.4; peptides 0.049 to 50 μM
Protocol: The BODIPY’-TR-cadaverine (BC) probe was used to determine the ability of peptides to bind to LPS ([Wang et al., 2020]). 0.5 μM LPS was incubated with 5 μM BC in […] Tris buffer (pH 7.4) for 4 h at 37°C. Subsequently, the peptides were added into the mixture and the final concentrations of peptides ranged from 0.049 to 50 μM. Ampicillin was used as the negative control. Changes in fluorescence were measured by a fluorescence spectrophotometry at room temperature (excitation/emission, 580/620 nm).

E. tarda [3] = experiment: SEM and TEM morphology; type: cell-based, Edwardsiella tarda; settings: 4× MIC, 2 h
Protocol: To further characterize the bactericidal effects of the peptides, scanning electron microscopy (SEM) and transmission electron microscopy (TEM) were used to visualize morphological changes ([Yang et al., 2019]). E. tarda was cultured to logarithmic growth stage (10^8 CFU/mL) and diluted with 0.01 M PBS (pH 7.4) to OD600 nm = 1. E. tarda cells were treated with 4× MIC peptides at 37°C for 2 h and the untreated cells were used as the control. Briefly, after centrifugation, the bacterial cells were washed three times with 0.1 M PBS (pH 7.2) and fixed overnight at 4°C with 2.5% glutaraldehyde. After washing again, the cells were fixed with 1% osmium tetroxide (OsO4) for 2 h and dehydrated in a graded ethanol series (50%–70%–85%–95% × 2–100%, × 2) for 15 min, respectively. The samples were then dried by CO2, sputtered with gold-palladium, and observed on a QUANTA200 SEM (FEI, Philips, Netherlands).
E. tarda cells were treated peptides before fixation as described above. The bacteria were washed with 0.01 M PBS (pH 7.4) for five times, 7 min each time, and fixed with 1% osmium acid buffer (4°C) for 1 h. After dehydration with a graded acetone series (30%–50%–70%–85%–95%–100% × 3), the cells were immersed in mixtures of acetone and resin (3:1, 1:1 and 1:3, respectively) for 40 min and in a pure epoxy resin overnight. The samples were then embedded in embedding medium and polymerized at 45°C for 3 h and at 65°C for 24 h, respectively. The sections were prepared using an ultramicrotome, stained with 1% uranyl acetate, and visualized by a JEM1400 (JEDL, Tokyo, Japan).

Edwardsiella tarda = type: cell-based
Protocol: as §1

[4] = test system: Salmonella pullorum CVCC1802; type: cell-based
Protocol: as §1

Escherichia coli CVCC195 = type: cell-based
Protocol: as §1

[5] = test system: Staphylococcus hyicus 437-2; type: cell-based
Protocol: as §1

[6] = test system: Staphylococcus aureus ATCC43300; type: cell-based
Protocol: as §1

[7] = test system: Salmonella typhimurium CVCC533; type: cell-based; settings: murium CVCC533
Protocol: as §1

E. tarda [8] = experiment: Time-killing curve; type: cell-based, Edwardsiella tarda; settings: 2× or 4× MIC, MHB, 1 × 10^5 CFU/mL, 28°C
Protocol: Time-killing curve of peptides was performed according to the previous method ([Flamm et al., 2019]). E. tarda was cultured to logarithmic phase, diluted in Mueller Hinton broth (MHB) (1 × 10^5 CFU/mL) containing 1×, 2×, or 4× MIC of peptides, and cultured at 28°C (200 rpm). PBS was added as a control. Bacterial samples (100 μL) were removed at different time intervals (0, 0.5, 1, 1.5, 2, 4, 6, 8, 10, 12, 22, and 24 h) and were counted on MH solid plates. The time-killing curves of peptides were plotted. Bacterial cells treated with 2× MIC norfloxacin and without treatment were used as the positive and blank controls, respectively.

[9] = type: cell-based, Streptococcus enteritidis
Protocol: as §1

| Structure (SMILES) | PAE (E. tarda [1]; 1× MIC) [h] | PAE (E. tarda [1]; 2× MIC) [h] | PAE, times longer than that of N6NH2 (E. tarda [1]; 4× MIC) [times] | PAE (E. tarda [1]; 4× MIC) [h] | killing of intracellular bacteria [2] | killing efficacy against intracellular E. tarda [2] | MIC (S. pullorum CVCC1789) [µg/mL] | MIC (E. coli CVCC25922) [µg/mL] | MIC (E. coli CVCC1515) [µg/mL] | ability to bind to LPS (BC probe displacement) (LPS) | morphological changes by SEM (E. tarda [3]) | MIC (Edwardsiella tarda) [µg/mL] | MIC [4] [µg/mL] | MIC (Escherichia coli CVCC195) [µg/mL] | MIC [5] [µg/mL] | MIC [6] [µg/mL] | MIC [7] [µg/mL] | time to completely kill E. tarda (E. tarda [8]) [h] | MIC [9] [µg/mL] | intracellular inhibition rate against E. tarda ([2]; 24 h, 50) |
| --- | --- | --- | --- | --- | --- | --- | --- | --- | --- | --- | --- | --- | --- | --- | --- | --- | --- | --- | --- | --- |
| CC(C)[C@@H]1NC(=O)CNC(=O)[C@H](CC(N)=O)NC(=O)[C@H](CCCNC(=N)N)NC(=O)[C@H](Cc2ccc(O)cc2)NC(=O)[C@H](C(C)C)NC(=O)[C@@H](NC(=O)[C@@H](NC(=O)[C@H](CC(N)=O)NC(=O)[C@H](Cc2c[nH]c3ccccc23)NC(=O)[C@H](C)NC(=O)[C@H](Cc2ccccc2)NC(=O)[C@H](CCCN)N=C(N(C)C)N(C)C)C(C)C)CSSC[C@@H](C(=O)N[C@@H](Cc2c[nH]cn2)C(=O)N[C@@H](CCCNC(=N)N)C(=O)N[C@@H](CCCNC(=N)N)C(=O)N[C@@H](C)C(=O)N[C@@H](CC(N)=O)C(N)=O)NC(=O)[C@H](C(C)C)NC(=O)[C@H](CCCNC(=N)N)NC1=O [GUON6NH2] ({Orn(α-tetramethylguanidino)}-FAWNVCVYRNGVRVCHRRAN-NH2; disulfide 6-15) | 1.54 | 1.51 | 2.65 | 3.97 | killed all intracellular bacteria | over 97.07% | 8 (≈ 3.04 µM) | 4 (≈ 1.52 µM) | 2 (≈ 0.76 µM) | V112N6NH2 > GUON6NH2 > N6NH2 > DN6NH2 > N6PNH2 | some protrusions were observed on the cell surfaces | 8 (≈ 3.04 µM) | 4 (≈ 1.52 µM) | 4 (≈ 1.52 µM) | 32 (≈ 12.2 µM) | 16 (≈ 6.08 µM) | 8 (≈ 3.04 µM) | ≤ 6 | 2 (≈ 0.76 µM) |  |
| CC(C)[C@@H]1NC(=O)CNC(=O)[C@H](CC(N)=O)NC(=O)[C@H](CCCNC(=N)N)NC(=O)[C@H](Cc2ccc(O)cc2)NC(=O)[C@H](C(C)C)NC(=O)[C@@H](NC(=O)[C@@H](NC(=O)[C@H](CC(N)=O)NC(=O)[C@H](Cc2c[nH]c3ccccc23)NC(=O)[C@H](C)NC(=O)[C@H](Cc2ccccc2)NC(=O)CN)C(C)C)CSSC[C@@H](C(=O)N[C@@H](Cc2cnc[nH]2)C(=O)N[C@@H](CCCNC(=N)N)C(=O)N[C@@H](CCCNC(=N)N)C(=O)N[C@@H](C)C(=O)N[C@@H](CC(N)=O)C(N)=O)NC(=O)[C@H](C(C)C)NC(=O)[C@H](CCCNC(=N)N)NC1=O [N6NH2] | 1.75 | 1.67 |  | 1.5 | killed all intracellular bacteria | 96.82% | 8 (≈ 3.23 µM) | 4 (≈ 1.62 µM) | 2 (≈ 0.808 µM) | V112N6NH2 > GUON6NH2 > N6NH2 > DN6NH2 > N6PNH2 | some protrusions were observed on the cell surfaces | 8 (≈ 3.23 µM) | 4 (≈ 1.62 µM) | 4 (≈ 1.62 µM) | 32 (≈ 12.9 µM) | 16 (≈ 6.46 µM) | 4 (≈ 1.62 µM) | ≤ 6 | 2 (≈ 0.808 µM) | 96.82–100% |
